Data on 7 molecules can be found in patent US5475029A, “Farnesyl compounds as cholesterol lowering agents” (The Board of Trustees of the Leland Stanford Junior …, priority 1993, dated 1995).

The subject of data set [1] is squalene synthase. Kind of data set: Squalene synthase assay (cell lysate). The format is biochemical. As to conditions: 1 nM to 50 μM. The protocol: Squalene Synthase Assay--The cell lysate was prepared immediately prior to running the assay. Cells were washed three times with PBS, once with a 0.1M potassium phosphate buffer (pH 7.4) containing 5 mM MgCl2 and 5 mM CHAPS, and once with a 0.01M potassium phosphate buffer (pH 7.4) containing 0.5 mM MgCl2 and 0.5 mM CHAPS. Cells were scraped with a rubber policeman in approximately 0.5 ml of the final wash buffer and dounce homogenized with 20 strokes, while on ice. An aliquot of cell lysate was examined with a light microscope to ensure that essentially all cells in the sample were lysed. An additional aliquot of cell lysate was saved for protein determination. […] The squalene was isolated by TLC and the radioactivity of the squalene bands was measured as previously described. […]
Since both farnesyl compounds have a structural similarity to farnesyl pyrophosphate, the substrate for squalene synthase, and some of the farnesyl compounds that have been tested function as a competitive inhibitor of squalene synthase, the effects of farnesyl acetate on in vitro squalene synthase activity was measured. As a positive control, squalene synthase activity was also measured in tile presence of zaragozic acid A, a potent competitive inhibitor of the enzyme. […]

Data set [2] has as its system HMGal. Kind of data set: HMGal activity (in vitro β-galactosidase specific activity) in CHO-HMGal cells. As to conditions: for reduction in HMGal activity at concentrations below the levels toxic to the cells: five isoprenoid compounds tested. The format is cell-based. The protocol: (§1) Cell Culture--All cells were grown as monolayers at 37° C. in an atmosphere of 5% CO2. CHO-HMGal cells were grown in minimal essential medium (MEM) supplemented with 0.25 mg/ml active geneticin and either 5% fetal calf serum (FCS) or 5% lipid-poor fetal calf serum (LPS).
Stock Solutions--Stock solutions of farnesyl acetate, ethyl farnesyl ether, and the mixture of 25-hydroxycholesterol with cholesterol were all made in 100% ethanol at 100 times the final concentration. In all experiments in which these compounds were used, there is a final concentration of 1% ethanol in the medium. For control, cells grown with "no additives" or "mevalonate" 100% ethanol was added to the medium to bring the final concentration of ethanol to 1%. The mevalonate stock solution was prepared at a concentration of 2M in 20 mM potassium phosphate buffer (pH 4.5).
(§2) β-galactosidase Specific Activity--In vitro β-galactosidase activity was measured using the substrate, o-nitrophenyl-β-D-galactopyranoside. Specific activities were calculated using protein concentration values.
Farnesyl acetate and ethyl farnesyl ether stimulate a reduction in HMGal activity--In an attempt to identify tile non-sterol metabolite(s) that triggers the down regulation of HMG-CoA reductase, five commercially available isoprenoid compounds were tested for their effects on HMGal activity in CHO-HMGal cells. Each of tile compounds tested closely resembled one of tile naturally occurring isoprenoid pyrophosphates, except that the pyrophosphate group had been replaced by either a hydroxyl or an […] group. The compounds tested included: 3-methyl-2-buten-1-ol, the alcohol of the five carbon isoprenoid-dimethylallyl pyrophosphate (a naturally occurring isomer of isopentenyl pyrophosphate); geraniol and geranyl acetate, the alcohol and the […] of the ten carbon isoprenoid-geranyl pyrophosphate; and farnesol and farnesyl acetate, the alcohol and the […] of the fifteen carbon isoprenoid-farnesyl pyrophosphate.
(§3) To confirm that the reduction in HMGal activity was the result of a regulatory function specifically targeting the membrane domain of HMGal, the effects of farnesyl acetate on β-galactosidase activity were measured in vitro for both CHO-HMGal cells and CHO-Gal cells. The CHO-Gal cells had been stably transfected with a construct identical to the HMGal construct (using the same vector, promoter, and 5' and 3' flanking regions) except that the construct in the CHO-Gal cells codes for a soluble β-galactosidase protein instead of the HMGal fusion protein with the membrane domain of HMG-CoA reductase. In this experiment, the CHO-Gal cells served to control for any artifacts farnesyl acetate might cause in the β-galactosidase assay or any nonspecific effects farnesyl acetate might have on the rates of protein synthesis or degradation.

For data set [3], the system named is total cellular protein. Kind of data set: Total cellular protein degradation. The format is cell-based. The following applies: 10 μg/ml. The protocol:
(§4) Measurement of HMGal and HMG-CoA Reductase Degradation Rates Cells grown in 60×15 mm dishes were washed once with ice-cold PBS and starved for 1 hour in 1 ml of methionine-free MEM supplemented with 5% LPS, 250 μg/ml of active geneticin, 10 μM compactin, and 0.1 mM mevalonate. These cells were radio-labeled for 2 hours in 300 μl of the methionine-free starvation medium containing 100 μCi of Tran^35 S-label (>1,000 Ci/mmol). Cells were incubated in an MEM-based chase medium containing 2 mM methionine, 5% LPS, 250 μg/ml of active geneticin, 10 μM compactin, and 0.1 mM mevalonate. During the chase period, some plates also had either 20 mM mevalonate, 10 μg/ml farnesyl acetate or 10 μg/ml ethyl farnesyl ether added to them as indicated in the figure legend. Following the chase, cells were washed, lysed and the HMGal and HMG-CoA reductase proteins were immunoprecipitated, subjected to SDS-PAGE and quantified.
(§5) In order to test whether the farnesyl compounds impact degradation, the rates of degradation for HMGal, HMG-CoA reductase, and total cellular protein were measured in the presence and absence of 10 μg/ml farnesyl acetate and ethyl farnesyl ether.

In data set [4] the test system is cholesterol biosynthetic pathway. Briefly: TLC distribution of [3H]acetate-derived non-saponifiable lipids (site of metabolic block). The format is cell-based. Also noted: radioactivity in the cell-derived fraction co-migrating with lanosterol / radioactivity in the cell-derived fraction co-migrating with squalene / radioactivity in the cell-derived fraction co-migrating with cholesterol / remaining radioactivity in the cell-derived fraction scattered throughout the rest of the TLC lane: concentration or dose not given beside the values. The protocol: Lipid Saponification and Extraction Procedure Saponification and extraction of lipids from cell and media samples was performed as previously described in Bradfute, et al. (1992) J.B.C. 267:18308-18314.
(§6) Thin Layer Chromatography--TLC was performed using Analtech 250 μm silica gel G plates with a hexanes/diethyl ether (1:1) solvent system. Lipid standards were visualized by iodine staining. Bands were scraped from the plate and their radioactivity was measured.
(§7) Quantification of Radioactivity--Samples were suspended in 4 ml of scintillation fluid (Cytoscint from ICN). The radioactivity of the samples was measured using a Beckman LS-7500 scintillation counter.
To determine tile site of tile metabolic block caused by farnesyl acetate and ethyl farnesyl ether, the non-saponifiable lipids from cells grown in the presence of the farnesyl compounds were examined for the accumulation of intermediates in the cholesterol biosynthetic pathway. The cells were only labeled for 1 hour and only treated with the farnesyl compounds during the labeling period; so that any intermediates which accumulated would be as a result of the inhibitory effects of the farnesol compounds and not subsequent regulatory effects on HMG-CoA reductase. CHO-HMGal cells were incubated with [^3 H]acetate and either farnesyl acetate, ethyl farnesyl ether, or no additive. The non-saponifiable lipids were isolated from both the cell, and the medium and separated by TLC.

Data set [5] has as its system CHO-HMGal cells. Kind of data set: Cell growth of CHO-HMGal cells in farnesyl compounds. The format is cell-based. The following applies: 20 μg/ml. The protocol: as §1
Cell growth in farnesyl acetate and ethyl farnesyl ether CHO-HMGal cells were grown in a range of farnesyl acetate and ethyl farnesyl ether concentrations, in order to determine the optimal concentration of the farnesyl compounds to use in subsequent experiments.

Data set [6] has as its system β-galactosidase. Kind of data set: β-galactosidase activity in CHO-Gal control cells. The format is cell-based. The protocol:
as §2, §3

Data set [7] deals with HMG-CoA reductase. Kind of data set: HMG-CoA reductase degradation rate (pulse-chase). The format is cell-based. As to conditions: 10 μg/ml during chase; untreated 9.3 hours. The protocol:
as §4, §5

Data set [8] relates to cholesterol biosynthesis. Briefly: [3H]acetate incorporation into cholesterol in CHO-HMGal cells. The format is cell-based. The protocol:
as §6, §7
Subsequently, the cells were labeled for 1,2, and 4 hours with [^3 H]acetate and harvested. The non-saponifiable lipid fraction from each cell type was extracted and separated by TLC. The radioactivity that co-migrated with cholesterol was measured and normalized for the amount of cellular protein.
Farnesyl acetate and ethyl farnesyl ether were only present during the labeling period so that any reduction in incorporation into cholesterol would be the result of inhibition and not a down regulation in HMG-CoA reductase.

The subject of data set [9] is HMGal. Briefly: HMGal degradation rate (pulse-chase). As to conditions: 10 μg/ml during chase; untreated 6.4 hours. The format is cell-based. The protocol: as §4, §5
In data set [10] the test system is HMGal. Briefly: HMGal synthesis rate ([35S]methionine incorporation). As to conditions: 20 mM. The format is cell-based. The protocol:
(§8) Measurement of HMGal and HMG-CoA Reductase Synthesis Rates Cells plated into 60×15 mm dishes were grown in 5% LPS MEM with 0.25 mg/ml active geneticin for 24 hours. These cells were washed with PBS and grown for 24 hours in 5% LPS MEM supplemented with 0.25 mg/ml active geneticin, 10 μM compactin and 0.1 mM mevalonate. After 24 hours, the medium was removed, the cells were washed with PBS and the medium was replaced with methionine-free MEM supplemented with 5% LPS, 250 μg/ml of active geneticin, 10 μM compactin, and 0.1 mM mevalonate. In addition, 20 mM mevalonate or 10 μg/ml farnesyl acetate was included in those plates previously treated with these compounds. […] Cells were washed, lysed and the HMGal and HMG-CoA reductase proteins were immunoprecipitated, subjected to SDS-PAGE and quantified. […]
(§9) Farnesyl compounds reduce translation and stimulate degradation of HMG-CoA reductase and HMGal A reduction in HMGal specific activity triggered by the farnesyl compounds could have been the result of a decrease in HMGal synthesis, an increase in HMGal degradation, or a combination of changes in both the synthesis and degradation rates. In order to test whether the farnesyl compounds impact synthesis, the rates of HMGal, HMG-CoA reductase, and total cellular protein synthesis were measured by [^35 S]methionine incorporation in the presence and absence of 10 μg/ml farnesyl acetate.

Data set [11] relates to HMG-CoA reductase. Kind of data set: HMG-CoA reductase synthesis rate ([35S]methionine incorporation). As to conditions: 20 mM. The format is cell-based. The protocol: as §8, §9
Setting [12] is: 1 hour labeling with [3H]acetate, compound only during labeling.

On to `C=C(CC[C@]12O[C@H](C(=O)O)[C@@](O)(C(=O)O)[C@](C(=O)O)(O1)[C@H](OC(=O)/C=C/[C@@H](C)C[C@@H](C)CC)[C@H]2O)[C@@H](OC(C)=O)[C@H](C)Cc1ccccc1` [zaragozic acid A, reference compound], for which the “inhibition of in vitro squalene synthase activity” value in data set [1] is listed as “more than 90%”.

On to `CC(C)=CCC/C(C)=C/CO` [geraniol, reference compound], for which the “reduction in HMGal activity at concentrations below the levels toxic to the cells” value (from here on “reduction in HMGal activity”) in data set [2] is listed as “only farnesyl acetate stimulated a reduction in HMGal activity”.

Consider `CCOCC=C(C)CCC=C(C)CCC=C(C)C` [ethyl farnesyl ether], for which the “effect on the degradation of total cellular protein” value in [3] is “Neither farnesyl compound had a significant effect”. Moreover, in data set [4] (setting [12]), the “radioactivity in the cell-derived fraction co-migrating with cholesterol” value came out at 1%, the “radioactivity in the cell-derived fraction co-migrating with lanosterol” value is listed as 48%, the “radioactivity in the cell-derived fraction co-migrating with squalene” value was 45% and the “remaining radioactivity in the cell-derived fraction scattered throughout the rest of the TLC lane” value is recorded as 6%. The “total non-saponifiable radioactivity found in the medium” value in data set [4] (untreated 6%) was found to be 14%. Besides, the “total non-saponifiable radioactivity found in the cells” value in data set [4] (untreated 94%) was determined as 86%. Further, in [4] (versus untreated sample), the “increase in media-derived material co-migrating with farnesol” value turned out to be 2 fold. Besides, the “reduction in cell growth” value in [5] was “approximately 60%”. Besides, the “change of β-galactosidase activity of CHO-Gal cells” value in data set [6] (10 μg/ml) is “insignificant”. For the same molecule, the “change of β-galactosidase activity of CHO-Gal cells” value in data set [6] (20 μg/ml) is reported as “essentially unchanged”. Besides, in data set [7], the “half-life of HMG-CoA reductase” value was 2.9 h and the “reduction of the half-life of HMG-CoA reductase” value is 70%. Besides, in [8] (24 hours pretreatment, then labeled 1, 2 and 4 hours, CHO-HMGal cells), the “reduction in [3H]acetate incorporation into cholesterol” value came out at 95%. The “reduction in [3H]acetate incorporation into cholesterol” value in data set [8] (compound present only during the labeling period, no pretreatment) is given as 98%. For the same molecule, the “reduction of HMGal activity” value in data set [2] (10 μg/ml, 24 hour treatment) amounted to 40%. Further, the “reduction of HMGal activity” value in [2] (20 μg/ml) was found to be 50%. In addition, in data set [9], the “half-life of HMGal” value was 3.0 h and the “reduction of the half-life of HMGal” value was 50%.

With `CC(C)=CCO` [3-methyl-2-buten-1-ol, reference compound], the “reduction in HMGal activity” value in data set [2] was “only farnesyl acetate stimulated a reduction in HMGal activity”.

`CC(=O)OC/C=C(\C)CCC=C(C)C` [geranyl acetate, reference compound]: the “reduction in HMGal activity” value in data set [2] is recorded as “only farnesyl acetate stimulated a reduction in HMGal activity”.

In the case of `CC(O)(CCO)CC(=O)O` (centres unmarked) [mevalonate, reference compound], the “reduction in the rate of HMGal synthesis” value in data set [10] worked out at 70%. The “reduction in HMG-CoA reductase synthesis” value in data set [11] turned out to be 70%.

As for `CC(C)=CCCC(C)=CCCC(C)=CCO` [farnesol, reference compound], in data set [2], the “reduction in HMGal activity” value is listed as “only farnesyl acetate stimulated a reduction in HMGal activity”.
